The values that follow come from patent US12403128B2, “Compositions and methods for blocking sodium channels” (University of Virginia Patent Foundation, priority 2017, dated 2025).

The structures appear in SMILES notation. Structures can show the parent of a compound that is named as a salt. Where two headings read alike, the source gives them in different places.

In data set [1] the test system is maximal electroshock (MES) seizures. Put plainly: MES (maximal electroshock) test, mice. Particulars: mice, IP, Table 14; for ED50: Mus musculus, read-out: MES ED50. Type of data set: in vivo. An excerpt: Evaluation of Compounds in MES Models of Seizures. […] These seizures are highly reproducible and are electrophysiologically consistent with human seizures. […] Abolition of the hindleg tonic extensor component of the seizure was used as the endpoint.

The subject of data set [2] is Metrazol-induced clonic seizures. Kind of data set: scM (subcutaneous Metrazol) test, mice. It counts as in vivo. Particulars: mice, IP, Table 14; for ED50: Mus musculus, read-out: sCM ED50. The procedure: Evaluation of Compounds in scM Models of Seizures. Subcutaneous injection of the convulsant Metrazol produces clonic seizures in laboratory animals. […] Animals may be pretreated with various doses of the test compound given by ip injection. At a previously determined TPE (time to peak) of the test compound, the dose of Metrazol which will induce convulsions in 97% of animals (CD97:85 mg/kg mice) may be injected into a loose fold of skin in the midline of the neck. The animals may be placed in isolation cages to minimize stress and observed for the next 30 min for the presence or absence of a seizure. An episode of clonic spasms, approximately 3-5 seconds, of the fore and/or hindlimbs, jaws, or vibrissae may be taken as the endpoint. […] The scM test represents acute animal seizures.

Data set [3] has as its system 6 Hz psychomotor seizures. Put plainly: 6 Hz psychomotor seizure test, mice. It counts as in vivo. Particulars: IP; for 6 Hz (32 mA) ED50 / 6 Hz (14 mA) ED50: Table 14; for ED50: Mus musculus. The procedure:
Evaluation of Compounds in 6 Hz Pyschomotor Seizure Test
Compounds were tested using a 6 Hz psychomotor seizure test. […] For example, both the MES and scM models are insensitive to levetiracetam, a compound considered potentially useful in the management of refractory seizures. […] Thus, the 6 Hz test can serve as a therapy resistant screening paradigm of acute seizure activity.

For data set [4], the system named is mice.
Data set [5] has as its system 6 Hz psychomotor seizures. Particulars: cited from earlier work.
The target of data set [6] is T1, Nav1.6 (Homo sapiens, UniProt Q9UQD0). Put plainly: % block of Nav1.6 at 100 μM and IC50 (NaV1.6). Particulars: 100 μM compound. Type of data set: cell-based. The procedure:
Evaluation of Compounds for % Block of Nav1.6 at 100 μM
Compounds of the present invention were tested in an assay for % block of Nav1.6 at a concentration of 100 μM compound. Table 1 also indicates the melting point ranges for some compounds.
Some such compounds correspond to a compound of Formula III, wherein R9 is substituted with a halogen, a nitro or a CF3 group. In comparing MV1089, MV1090 and MV1091, it is shown that compounds of Formula III where R3 is H result in higher % block than when R3 is substituted. e.g., by OCH3. In comparing MV1066, MV1084, MV1085, MV1086, MV1087 and MV1088, it is shown that compounds of Formula III where R9 is halogen, a nitro or a CF3 group result in higher % block than when R9 is OCH3, COOH or CH3.

For data set [7], the target named is T1, Nav1.6. Kind of data set: High-throughput flux assay, Nav1.6.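 Also: IC50 from the flux assay.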 It counts as cell-based. Particulars: human isoform. The procedure:
(§1) Evaluation of Compounds on Human Isoforms Using a High-Throughput Flux Assay
(§2) Compounds were tested using a high-throughput flux assay across Nav1.5, Nav1.6 and Nav1.7.

Data set [8] concerns the target T2, NaV1.5 (Homo sapiens, UniProt Q14524). Put plainly: High-throughput flux assay, NaV1.5.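 Also: IC50 from the flux assay.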 Type of data set: cell-based. Particulars: human isoform. The procedure:
as §1, §2

Data set [9] concerns the target T3, NaV1.7 (Homo sapiens, UniProt Q15858). Kind of data set: High-throughput flux assay, NaV1.7.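 Also: IC50 from the flux assay.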 Type of data set: cell-based. Particulars: human isoform. The procedure: as §1, §2
Data set [10] addresses T1, Nav1.6. Kind of data set: Qube assay, NaV1.6. Type of data set: cell-based. Particulars: human isoform; read-out: Qube EP IC50 NaV1.6. The procedure:
(§3) Evaluation of Compounds on Human Isoforms Using Qube Assay.
(§4) Compounds were tested using a Qube assay across NaV1.5, NaV1.6 and NaV1.7.

The target of data set [11] is T2, NaV1.5. Put plainly: Qube assay, NaV1.5. It counts as cell-based. Particulars: human isoform; read-out: Qube EP IC50 NaV1.5. The procedure: as §3, §4
The target in data set [12] is T3, NaV1.7. Kind of data set: Qube assay, NaV1.7. Type of data set: cell-based. Particulars: human isoform; read-out: Qube EP IC50 NaV1.7. The procedure:
as §3, §4

The mark [13] stands for this setting: 32 mA, Table 14, read-out: 6 Hz (32 mA) ED50.

T2 sequence (Q14524 whole entry, canonical isoform): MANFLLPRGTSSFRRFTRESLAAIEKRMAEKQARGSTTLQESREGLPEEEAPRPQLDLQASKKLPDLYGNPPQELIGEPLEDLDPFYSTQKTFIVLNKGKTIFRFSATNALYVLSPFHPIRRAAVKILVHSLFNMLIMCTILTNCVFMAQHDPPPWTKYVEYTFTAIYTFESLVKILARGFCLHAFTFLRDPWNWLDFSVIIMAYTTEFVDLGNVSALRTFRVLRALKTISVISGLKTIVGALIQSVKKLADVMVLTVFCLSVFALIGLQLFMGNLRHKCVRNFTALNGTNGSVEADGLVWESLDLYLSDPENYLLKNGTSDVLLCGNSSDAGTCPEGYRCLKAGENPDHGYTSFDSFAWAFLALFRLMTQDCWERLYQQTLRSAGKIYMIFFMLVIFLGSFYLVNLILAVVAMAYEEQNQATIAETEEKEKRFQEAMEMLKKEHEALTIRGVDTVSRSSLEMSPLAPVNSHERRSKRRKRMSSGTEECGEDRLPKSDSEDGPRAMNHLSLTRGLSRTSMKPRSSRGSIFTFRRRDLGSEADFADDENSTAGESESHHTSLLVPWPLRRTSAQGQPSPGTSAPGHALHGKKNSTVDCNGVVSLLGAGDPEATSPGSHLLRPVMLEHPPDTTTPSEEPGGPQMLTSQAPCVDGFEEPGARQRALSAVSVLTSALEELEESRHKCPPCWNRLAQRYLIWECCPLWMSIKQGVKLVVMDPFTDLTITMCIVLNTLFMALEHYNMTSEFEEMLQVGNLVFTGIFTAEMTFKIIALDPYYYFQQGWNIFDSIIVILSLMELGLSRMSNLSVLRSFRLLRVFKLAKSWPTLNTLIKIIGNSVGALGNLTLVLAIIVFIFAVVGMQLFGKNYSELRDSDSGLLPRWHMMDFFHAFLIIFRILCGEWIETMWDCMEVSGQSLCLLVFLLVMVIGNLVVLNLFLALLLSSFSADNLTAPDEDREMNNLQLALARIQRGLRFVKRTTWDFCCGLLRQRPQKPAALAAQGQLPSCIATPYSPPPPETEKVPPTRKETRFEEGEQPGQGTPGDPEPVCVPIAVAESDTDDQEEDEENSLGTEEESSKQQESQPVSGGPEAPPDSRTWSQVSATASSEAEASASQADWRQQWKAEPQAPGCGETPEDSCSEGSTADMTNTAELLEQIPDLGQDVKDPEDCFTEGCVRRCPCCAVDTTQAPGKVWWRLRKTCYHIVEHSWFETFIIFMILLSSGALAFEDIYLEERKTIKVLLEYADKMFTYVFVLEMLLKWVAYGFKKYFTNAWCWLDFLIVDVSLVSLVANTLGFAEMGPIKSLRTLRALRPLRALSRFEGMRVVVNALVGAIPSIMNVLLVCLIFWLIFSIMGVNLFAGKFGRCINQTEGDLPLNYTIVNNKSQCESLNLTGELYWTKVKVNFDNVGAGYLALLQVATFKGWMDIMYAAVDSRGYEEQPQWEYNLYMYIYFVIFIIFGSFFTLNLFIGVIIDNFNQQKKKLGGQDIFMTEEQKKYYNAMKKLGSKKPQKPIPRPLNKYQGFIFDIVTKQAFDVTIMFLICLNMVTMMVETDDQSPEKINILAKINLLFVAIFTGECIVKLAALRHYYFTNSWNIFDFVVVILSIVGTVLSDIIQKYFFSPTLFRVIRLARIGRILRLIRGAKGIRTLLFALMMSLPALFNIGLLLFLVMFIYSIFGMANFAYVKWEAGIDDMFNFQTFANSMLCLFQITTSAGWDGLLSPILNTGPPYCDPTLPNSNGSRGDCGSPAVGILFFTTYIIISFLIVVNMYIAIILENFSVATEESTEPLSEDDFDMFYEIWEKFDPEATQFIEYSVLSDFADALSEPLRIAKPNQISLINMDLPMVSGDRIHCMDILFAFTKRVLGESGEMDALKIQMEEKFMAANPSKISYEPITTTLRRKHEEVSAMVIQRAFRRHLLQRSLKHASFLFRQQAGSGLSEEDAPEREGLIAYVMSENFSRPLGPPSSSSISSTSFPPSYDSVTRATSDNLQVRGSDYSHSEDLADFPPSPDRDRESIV
T1 sequence (Q9UQD0 whole entry): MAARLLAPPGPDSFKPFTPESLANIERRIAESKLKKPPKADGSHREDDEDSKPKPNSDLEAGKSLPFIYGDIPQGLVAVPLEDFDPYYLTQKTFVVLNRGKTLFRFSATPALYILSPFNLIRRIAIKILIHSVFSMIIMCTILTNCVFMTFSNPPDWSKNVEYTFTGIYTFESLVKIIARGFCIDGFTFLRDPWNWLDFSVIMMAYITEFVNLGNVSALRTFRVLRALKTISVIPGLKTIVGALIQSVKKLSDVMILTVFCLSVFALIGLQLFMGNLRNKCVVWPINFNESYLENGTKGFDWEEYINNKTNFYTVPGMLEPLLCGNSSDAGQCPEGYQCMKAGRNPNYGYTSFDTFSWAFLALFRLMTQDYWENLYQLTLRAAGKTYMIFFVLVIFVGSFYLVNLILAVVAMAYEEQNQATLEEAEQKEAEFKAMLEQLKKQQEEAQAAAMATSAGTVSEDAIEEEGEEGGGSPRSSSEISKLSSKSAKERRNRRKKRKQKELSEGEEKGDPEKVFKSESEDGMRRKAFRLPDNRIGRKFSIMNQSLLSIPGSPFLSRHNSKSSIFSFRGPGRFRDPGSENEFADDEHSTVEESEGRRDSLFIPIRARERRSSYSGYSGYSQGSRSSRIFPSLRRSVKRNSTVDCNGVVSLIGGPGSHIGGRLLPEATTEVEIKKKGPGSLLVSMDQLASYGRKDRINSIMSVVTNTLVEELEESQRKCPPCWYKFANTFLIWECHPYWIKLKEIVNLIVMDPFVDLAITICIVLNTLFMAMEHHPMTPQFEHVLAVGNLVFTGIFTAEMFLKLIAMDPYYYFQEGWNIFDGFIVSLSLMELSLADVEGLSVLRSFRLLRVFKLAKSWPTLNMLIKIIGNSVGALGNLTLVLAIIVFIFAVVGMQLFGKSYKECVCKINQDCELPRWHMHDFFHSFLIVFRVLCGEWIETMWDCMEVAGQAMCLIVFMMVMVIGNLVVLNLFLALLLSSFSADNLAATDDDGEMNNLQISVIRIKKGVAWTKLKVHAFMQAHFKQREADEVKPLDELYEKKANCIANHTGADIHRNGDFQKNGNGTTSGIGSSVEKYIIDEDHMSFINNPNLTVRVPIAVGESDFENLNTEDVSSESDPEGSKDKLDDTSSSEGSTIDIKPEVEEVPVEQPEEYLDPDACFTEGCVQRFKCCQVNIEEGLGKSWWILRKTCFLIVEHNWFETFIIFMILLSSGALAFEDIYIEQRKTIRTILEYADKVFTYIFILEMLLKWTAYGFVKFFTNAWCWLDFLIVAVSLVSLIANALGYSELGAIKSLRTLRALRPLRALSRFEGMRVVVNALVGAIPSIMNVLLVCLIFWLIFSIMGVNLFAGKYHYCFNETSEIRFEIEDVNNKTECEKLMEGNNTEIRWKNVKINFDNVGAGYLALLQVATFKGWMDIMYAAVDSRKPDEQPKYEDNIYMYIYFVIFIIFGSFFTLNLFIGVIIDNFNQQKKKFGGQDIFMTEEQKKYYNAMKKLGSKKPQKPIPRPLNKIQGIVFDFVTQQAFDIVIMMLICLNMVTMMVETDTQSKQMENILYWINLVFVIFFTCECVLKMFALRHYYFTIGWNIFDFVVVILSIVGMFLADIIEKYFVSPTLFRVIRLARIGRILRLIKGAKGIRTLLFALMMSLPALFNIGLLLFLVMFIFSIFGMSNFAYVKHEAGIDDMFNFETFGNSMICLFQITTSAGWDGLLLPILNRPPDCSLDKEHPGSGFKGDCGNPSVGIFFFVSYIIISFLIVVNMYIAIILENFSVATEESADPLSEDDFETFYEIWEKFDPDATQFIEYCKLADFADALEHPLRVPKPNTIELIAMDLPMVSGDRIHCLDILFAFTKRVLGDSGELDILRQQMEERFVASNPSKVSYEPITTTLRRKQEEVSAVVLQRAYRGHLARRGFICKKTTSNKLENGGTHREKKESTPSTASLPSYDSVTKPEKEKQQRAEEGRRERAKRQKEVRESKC

As for `NC(=O)N1c2ccccc2C=Cc2ccccc21` [Carbamazepine, reference compound], the ED50 in [1] turned out to be 7.8 mg/kg. In data set [2], the “sCM ED50” value is given as “None”. Besides, in data set [3] (32 mA), the “6 Hz (32 mA) ED50” value was “None”. In data set [3] ((14 mA) [sic]), the “6 Hz (14 mA) ED50” value was “None”. For the same compound, the “TOX (TD50)” value in [4] (mice, IP, Table 14) turned out to be 45.5 mg/kg.
As to `CCC1(C)CC(=O)NC1=O` (centres unmarked) [Ethosuximide, reference compound], the “MES ED50” value in [1] was “None”. Also, the figures for the ED50 in data set [2] and in data set [3] (setting [13]) were 136 mg/kg and 167 mg/kg, respectively. For the same compound, the “6 Hz (14 mA) ED50” value in data set [3] ((14 mA) [sic]) was “None”. Also, the “TOX (TD50)” value in [4] (mouse, in vivo, ip) stood at 341 mg/kg. In addition, the “activity in 6 Hz test” value in data set [5] (44 mA) is given as “ineffective”.
With `Nc1nnc(-c2cccc(Cl)c2Cl)c(N)n1` [Lamotrigine, reference compound], in data set [1], the ED50 was found to be 7.5 mg/kg. Moreover, the “sCM ED50” value in [2] was “None”. Also, the “6 Hz (32 mA) ED50” value in data set [3] (32 mA) is “None”. In data set [3] ((14 mA) [sic]), the “6 Hz (14 mA) ED50” value was “None”. In addition, in data set [5] (32 mA), the “activity in 6 Hz test” value is “lose activity”.
Regarding `COc1ccccc1-c1ncc(C)[nH]1` [MV1358, 2-(2-METHOXY-PHENYL)-5-METHYL-1H-IMIDAZOLE OXALATE], 100 µM produced 50% inhibition in data set [6].
The compound `Cc1cnc(-c2ccc(Cl)cc2)[nH]1` [MV1359, 2-(4-CHLORO-PHENYL)-5-METHYL-1H-IMIDAZOLE OXALATE] came in with an inhibition at 100 µM in data set [6] of 75%.
Same read-out and setting: to `Cc1cnc(-c2cccc(Cl)c2)[nH]1` [MV1360, 2-(3-CHLORO-PHENYL)-5-METHYL-1H-IMIDAZOLE OXALATE] belongs 70%; to `Cc1cnc(-c2ccccc2Cl)[nH]1` [MV1361, 2-(2-CHLORO-PHENYL)-5-METHYL-1H-IMIDAZOLE OXALATE], 0%.
On the same count and under the same terms, to `COc1ccc(-c2nc(C)c(C)[nH]2)cc1` [MV1362, 2-(4-METHOXY-PHENYL)-4,5-DIMETHYL-1H-IMIDAZOLE OXALATE] belongs 85%; to `COc1cccc(-c2nc(C)c(C)[nH]2)c1` [MV1363, 2-(3-METHOXY-PHENYL)-4,5-DIMETHYL-1H-IMIDAZOLE OXALATE], 80%; to `COc1ccccc1-c1nc(C)c(C)[nH]1` [MV1364, 2-(2-METHOXY-PHENYL)-4,5-DIMETHYL-1H-IMIDAZOLE OXALATE], 70%.
Same read-out and setting: to `Cc1nc(-c2ccc(Cl)cc2)[nH]c1C` [MV1365, 2-(4-CHLORO-PHENYL)-4,5-DIMETHYL-1H-IMIDAZOLE OXALATE] belongs 85%; to `Cc1nc(-c2cccc(Cl)c2)[nH]c1C` [MV1366, 2-(3-CHLORO-PHENYL)-4,5-DIMETHYL-1H-IMIDAZOLE OXALATE], 95%; to `Cc1nc(-c2ccccc2Cl)[nH]c1C` [MV1367, 2-(2-CHLORO-PHENYL)-4,5-DIMETHYL-1H-IMIDAZOLE OXALATE], 45%.
With `CCCc1nc(-c2ccc(OC)cc2)[nH]c1C` [MV1368, 2-(4-METHOXY-PHENYL)-5-METHYL-4-PROPYL-1H-IMIDAZOLE OXALATE], in data set [6], the inhibition at 100 µM came to 85%.
On the same count and under the same terms, to `CCCc1nc(-c2cccc(OC)c2)[nH]c1C` [MV1369, 2-(3-METHOXY-PHENYL)-5-METHYL-4-PROPYL-1H-IMIDAZOLE OXALATE] belongs 100%; to `CCCc1nc(-c2ccccc2OC)[nH]c1C` [MV1370, 2-(2-METHOXY-PHENYL)-5-METHYL-4-PROPYL-1H-IMIDAZOLE OXALATE], 90%; to `CCCc1nc(-c2ccc(Cl)cc2)[nH]c1C` [MV1371, 2-(4-CHLORO-PHENYL)-5-METHYL-4-PROPYL-1H-IMIDAZOLE OXALATE], 100%.
On to `CCCc1nc(-c2cccc(Cl)c2)[nH]c1C` [MV1372, 2-(3-CHLORO-PHENYL)-5-METHYL-4-PROPYL-1H-IMIDAZOLE OXALATE], for which the inhibition at 100 µM in data set [6] was found to be 100%.
Take `COc1ccc(-c2nc(C)c(-c3ccccc3)[nH]2)cc1` [MV1501, 2-(4-methoxyphenyl)-4-methyl-5-phenyl-1H-imidazole hydrochloride]: in data set [6], the inhibition at 100 µM came out at 90%. Besides, the IC50 in data set [7] turned out to be 2.74 µM; in [8] it was 6.24 µM; in data set [9], 7.98 µM; in [10] it was 7.43 µM; in data set [11] it was 27 µM; in data set [12], 14.8 µM.
Consider `COc1ccc(-c2nc(C)c(-c3ccccc3)[nH]2)cc1O` [MV1508, 2-methoxy-5-(5-methyl-4-phenyl-1H-imidazol-2-yl)phenol hydrochloride], for which 100 µM produced 90% inhibition in data set [6]. Also, the IC50 in [7] came to 1.88 µM; in data set [8], 2.61 µM; in data set [9] it was 4.58 µM; in data set [10], 3.99 µM; in data set [11] it was 11.9 µM; in data set [12], 11.5 µM.
Compound `CC(=O)Nc1ccc(-c2nc(C)c(-c3ccccc3)[nH]2)cc1` [MV1509, N-2,4-[3-methyl-4-phenyl-1H-imidazol-2-yl)phenyl]acetamide hydrochloride] displayed an inhibition at 100 µM in [6] of 90%. Besides, the IC50 was determined as 5.67 µM in data set [7]; 7.94 µM in data set [8]; 23.8 µM in [9]; 8.24 µM in [10]; 15.9 µM in data set [11]; 30 µM in [12].
For `O=C1NC(=O)C(c2ccccc2)(c2ccccc2)N1` [Phenytoin, reference compound], the “sCM ED50” value in data set [2] was “None”. For the same compound, the “6 Hz (32 mA) ED50” value in data set [3] (32 mA) is listed as “None”. Besides, the “6 Hz (14 mA) ED50” value in data set [3] ((14 mA) [sic]) is reported as “None”. The “activity in 6 Hz test” value in data set [5] (32 mA) is listed as “lose activity”.
Regarding `CCCC(CCC)C(=O)O` [Valproic Acid, reference compound], the ED50 in [1] stood at 263 mg/kg; in data set [2] it was 220 mg/kg; in data set [3] (setting [13]), 126 mg/kg; in [3] ((14 mA) [sic], Table 14, read-out: 6 Hz (14 mA) ED50) it was 310 mg/kg. Also, in data set [5] (44 mA), the “activity in 6 Hz test” value is recorded as “need higher doses”.
Turning to `CC[C@@H](C(N)=O)N1CCCC1=O` [levetiracetam], the “activity in 6 Hz test” value in data set [5] (44 mA) is “need higher doses”.

Broadly, the ED50 is the midpoint of the dose-response relation. In general, inhibition refers to the relative decrease from the control value, in per cent. Low values mean a response near the control, high ones a response far below the control. Broadly, the IC50 is the point on the concentration scale where inhibition reaches its midpoint.
